Results on 19 molecules are retold here after PubChem BioAssay AID192 (DTP/NCI, 2004).

The assay deals with BDF1 mice, B16 melanoma ip, median survival T/C. Description: NCI In Vivo Anticancer Drug Screen. Data for tumor model B16 Melanoma (intraperitoneal) in B6D2F1 (BDF1) mice. The conditions noted are these: endpoint: median survival time, higher = longer survival. An outline of the steps: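 In this screen, activity was judged from survival or tumor size in treated versus vehicle-treated tumor-bearing mice, reported as T/C.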

The mark [1] stands for this setting: dose: 2.0 mg/kg/injection, schedule: Q01DX009 (ip), vehicle: saline with Tween-80.
[2] abbreviates: dose: 1.56 mg/kg/injection, schedule: Q01DX009 (ip), vehicle: saline.
[3] abbreviates: dose: 50.0 mg/kg/injection, schedule: Q01DX009 (ip), vehicle: saline with Tween-80.
Where [4] appears, read: dose: 12.5 mg/kg/injection, schedule: Q01DX009 (ip), vehicle: Klucel (hydroxypropylcellulose) (HPC).
[5] abbreviates: dose: 25.0 mg/kg/injection, schedule: Q01DX009 (ip), vehicle: Klucel (hydroxypropylcellulose) (HPC).
The mark [6] stands for this setting: dose: 100.0 mg/kg/injection, schedule: Q01DX009 (ip), vehicle: Klucel (hydroxypropylcellulose) (HPC).
[7] abbreviates: dose: 200.0 mg/kg/injection, schedule: Q01DX009 (ip), vehicle: Klucel (hydroxypropylcellulose) (HPC).
The mark [8] stands for this setting: dose: 50.0 mg/kg/injection, schedule: Q01DX009 (ip), vehicle: Klucel (hydroxypropylcellulose) (HPC).
[9] abbreviates: dose: 100.0 mg/kg/injection, schedule: Q01DX009 (ip), vehicle: saline with Tween-80.
Where [10] appears, read: dose: 200.0 mg/kg/injection, schedule: Q01DX009 (ip), vehicle: saline with Tween-80.
Where [11] appears, read: dose: 400.0 mg/kg/injection, schedule: Q01DX009 (ip), vehicle: saline with Tween-80.

Each structure is given as a SMILES string. Values joined by “and” are separate entries in the source; they are usually repeats but may differ in a detail not shown here. Equal values may be shown once. Inconclusive results and toxic doses are left out.

On to `NC(=S)N/N=C\c1nccc2c(C(F)(F)F)cccc12`, for which the T/C is 105 % of control (dose: 1.5 mg/kg/injection, schedule: Q04DX003 (ip), vehicle: saline with Tween-80); 110 % of control (dose: 3.0 mg/kg/injection, schedule: Q04DX003 (ip), vehicle: saline with Tween-80); 100 % of control (dose: 6.0 mg/kg/injection, schedule: Q04DX003 (ip), vehicle: saline with Tween-80); 102 % of control (dose: 12.0 mg/kg/injection, schedule: Q04DX003 (ip), vehicle: saline with Tween-80).

On to `Nc1nc(=S)c2[nH]cnc2[nH]1`, for which the T/C is, setting by setting: (dose: 0.25 mg/kg/injection, schedule: Q01DX009 (ip), vehicle: saline sonified) 100 % of control; (dose: 0.25 mg/kg/injection, schedule: Q01DX009 (ip), vehicle: suspension in saline) 109 % of control; (dose: 0.5 mg/kg/injection, schedule: Q01DX009 (ip), vehicle: saline sonified) 112 % of control and 115 % of control; (dose: 0.5 mg/kg/injection, schedule: Q01DX009 (ip), vehicle: suspension in saline) 120 % of control; (dose: 1.0 mg/kg/injection, schedule: Q01DX009 (ip), vehicle: saline sonified) 100 % of control; (dose: 1.0 mg/kg/injection, schedule: Q01DX009 (ip), vehicle: suspension in saline) 105 % of control. For the same molecule, the T/C was 95 % of control and 105 % of control (dose: 2.0 mg/kg/injection, schedule: Q01DX009 (ip), vehicle: saline sonified); 111 % of control under setting [1]; 107 % of control (dose: 2.0 mg/kg/injection, schedule: Q01DX009 (ip), vehicle: suspension in saline).

`N#CCN1CCCCC1`: the T/C (dose: 0.39 mg/kg/injection, schedule: Q01DX009 (ip), vehicle: saline) was 96 % of control; the T/C (dose: 0.78 mg/kg/injection, schedule: Q01DX009 (ip), vehicle: saline) is 100 % of control; the T/C under setting [2] was 102 % of control.

On to `CCCCOC(=O)c1ccc(NC(=O)Nc2ccccc2Cl)cc1`, for which the T/C runs as follows: (dose: 12.5 mg/kg/injection, schedule: Q01DX009 (ip), vehicle: saline with Tween-80) 102 % of control; (dose: 25.0 mg/kg/injection, schedule: Q01DX009 (ip), vehicle: saline with Tween-80) 102 % of control; under setting [3], 88 % of control and 100 % of control.

As for `CC1CN=C(c2ccc(NC(=O)c3ccc(C(=O)Nc4ccc(C5=NCC(C)N5)cc4)cc3)cc2)N1` (centres undefined), the T/C under setting [4] is 118 % of control and the T/C under setting [5] was 107 % of control.

As for `O=C1C(=O)c2ccccc2-c2ccccc21.O=C1C(=O)c2ccccc2-c2ccccc21.[Hg]`, the T/C runs as follows: (dose: 1.5 mg/kg/injection, schedule: Q01DX009 (ip), vehicle: saline with Tween-80) 94 % of control and 99 % of control; (dose: 3.0 mg/kg/injection, schedule: Q01DX009 (ip), vehicle: saline with Tween-80) 88 % of control and 90 % of control.

With `O=c1[nH]c(=O)n2n1CC(Br)C(Br)C2` (centres undefined), the T/C runs as follows: (dose: 100.0 mg/kg/injection, schedule: Q04DX003 (ip), vehicle: saline with Tween-80) 97 % of control; (dose: 200.0 mg/kg/injection, schedule: Q04DX003 (ip), vehicle: saline with Tween-80) 102 % of control; (dose: 400.0 mg/kg/injection, schedule: Q04DX003 (ip), vehicle: saline with Tween-80) 110 % of control.

With `O=C1OCC(O)C(O)C(O)C(O)C1O` (centres undefined), the T/C by setting is: (dose: 100.0 mg/kg/injection, schedule: Q01DX009 (ip), vehicle: saline) 113 % of control; (dose: 200.0 mg/kg/injection, schedule: Q01DX009 (ip), vehicle: saline) 106 % of control; (dose: 400.0 mg/kg/injection, schedule: Q01DX009 (ip), vehicle: saline) 120 % of control.

Take `CCOC(=O)CC(=O)c1ccccc1F`: the T/C runs as follows: under setting [6], 99 % of control; under setting [7], 102 % of control; (dose: 400.0 mg/kg/injection, schedule: Q01DX009 (ip), vehicle: Klucel (hydroxypropylcellulose) (HPC)) 106 % of control.

In the case of `Nc1cc(NC(=O)c2ccc(Cl)cc2)ccc1S(=O)(=O)O`, the T/C is, setting by setting: (dose: 3.12 mg/kg/injection, schedule: Q01DX009 (ip), vehicle: Klucel (hydroxypropylcellulose) (HPC)) 94 % of control; (dose: 6.25 mg/kg/injection, schedule: Q01DX009 (ip), vehicle: Klucel (hydroxypropylcellulose) (HPC)) 99 % of control; under setting [4], 96 % of control; under setting [5], 98 % of control; under setting [8], 98 % of control.

As for `CC1CCC2(C)CCC3(C)C(=CCC4C5(C)CCC(O)C(C)(C)C5CCC43C)C2C1C` (centres undefined), the T/C under setting [8] is 99 % of control, the T/C under setting [6] is 97 % of control and the T/C under setting [7] was 90 % of control.

Turning to `COC(=O)C1Oc2ccc(Cl)cc2Cc2cc(Cl)ccc2O1`, the T/C (dose: 2.5 mg/kg/injection, schedule: Q01DX009 (ip), vehicle: Klucel (hydroxypropylcellulose) (HPC)) is 91 % of control; the T/C (dose: 5.0 mg/kg/injection, schedule: Q01DX009 (ip), vehicle: Klucel (hydroxypropylcellulose) (HPC)) was 99 % of control; the T/C (dose: 10.0 mg/kg/injection, schedule: Q01DX009 (ip), vehicle: Klucel (hydroxypropylcellulose) (HPC)) is 93 % of control and 99 % of control.

For `CC(=O)NC1=C(N2CC2)C(=O)C(NC(C)=O)=C(N2CC2)C1=O`, the T/C is, setting by setting: (dose: 0.12 mg/kg/injection, schedule: Q01DX009 (ip), vehicle: saline with Tween-80) 106 % of control and 112 % of control; (dose: 0.25 mg/kg/injection, schedule: Q01DX005 (ip), vehicle: saline with Tween-80) 103 % of control and 109 % of control; (dose: 0.25 mg/kg/injection, schedule: Q01DX009 (ip), vehicle: saline with Tween-80) 107 % of control and 112 % of control; (dose: 0.5 mg/kg/injection, schedule: Q01DX005 (ip), vehicle: saline with Tween-80) 107 % of control; (dose: 0.5 mg/kg/injection, schedule: Q01DX009 (ip), vehicle: saline with Tween-80) 124 % of control; (dose: 1.0 mg/kg/injection, schedule: Q01DX005 (ip), vehicle: saline with Tween-80) 116 % of control and 121 % of control. Also, the T/C under setting [1] is 157 % of control; the T/C (dose: 7.0 micrograms/kg/injection, schedule: Q01DX009 (ip), vehicle: saline) is 102 % of control; the T/C (dose: 15.0 micrograms/kg/injection, schedule: Q01DX009 (ip), vehicle: saline) was 95 % of control; the T/C (dose: 31.0 micrograms/kg/injection, schedule: Q01DX009 (ip), vehicle: saline) was 92 % of control; the T/C (dose: 62.0 micrograms/kg/injection, schedule: Q01DX009 (ip), vehicle: saline) is 116 % of control; the T/C (dose: 125.0 micrograms/kg/injection, schedule: Q01DX009 (ip), vehicle: saline) was 95 % of control.

For the molecule `O=c1ssc(=Nc2ccccc2)n1-c1ccccc1`, the T/C by setting is: under setting [4], 102 % of control; under setting [5], 102 % of control; under setting [8], 100 % of control; under setting [6], 106 % of control; under setting [7], 91 % of control.

Take `O=C(OC1COC(n2c(=O)oc3ccc(F)cc32)C(OC(=O)c2ccccc2)C1OC(=O)c1ccccc1)c1ccccc1` (centres undefined): the T/C under setting [3] is 93 % of control; the T/C under setting [6] was 89 % of control; the T/C under setting [9] was 92 % of control; the T/C under setting [7] is 86 % of control; the T/C under setting [10] is 107 % of control; the T/C under setting [11] was 90 % of control.

With `COC(=O)c1cc(C)ccc1O`, the T/C was 108 % of control under setting [3], 97 % of control under setting [9] and 105 % of control under setting [10].

As to `COc1cc(C(=O)N2CCN(c3ccccc3)CC2)c2ccccc2n1`, the T/C was 119 % of control under setting [9], 119 % of control under setting [10] and 124 % of control under setting [11].

`CC(C)CC(NC(=O)C(O)C(N)Cc1ccccc1)C(=O)O` (centres undefined): the T/C (dose: 0.05 mg/kg/injection, schedule: Q01DX009 (oral), vehicle: saline) is 97 % of control; the T/C (dose: 0.5 mg/kg/injection, schedule: Q01DX009 (oral), vehicle: saline) is 97 % of control; the T/C (dose: 5.0 mg/kg/injection, schedule: Q01DX009 (oral), vehicle: saline) was 96 % of control.

Turning to `CC(CN1CCN(C)CC1)CN1c2ccccc2Sc2ccc(C(F)(F)F)cc21` (centres undefined), the T/C by setting is: under setting [2], 110 % of control; (dose: 3.12 mg/kg/injection, schedule: Q01DX009 (ip), vehicle: saline) 110 % of control; (dose: 6.25 mg/kg/injection, schedule: Q01DX009 (ip), vehicle: saline) 123 % of control; (dose: 12.5 mg/kg/injection, schedule: Q01DX009 (ip), vehicle: saline) 107 % of control.
